Reference: patent US10555960B2, “Use of an aminoglycoside for nonsense mutation suppression and the treatment of disease” (PTC Therapeutics, Inc., priority 2015, dated 2020)
Counter-ions that a name gives are not always drawn. Like-named read-outs stand apart in the source and are kept apart here.

Test system: premature stop codon
Assay: Premature stop codon readthrough (nonsense suppression), full length protein production by enzyme-linked immunosorbent assay
Type: cell-based
Method: Table 1 also provides the median maximum fold increase of the full length protein production over DMSO-treated samples as also determined by enzyme-linked immunosorbent assay within the concentration range tested (up to 1 mM).

[1] = median, enzyme-linked immunosorbent assay, concentration range tested up to 1 mM
[2] = median, enzyme-linked immunosorbent assay, within concentration range tested (up to 1 mM)

Compound	EC2X (median concentration that doubles the intensity of the nonsense suppression) [1] [µM]	Max Fold over DMSO (median maximum fold increase of full length protein production over DMSO-treated samples) [2]	EC2X (median concentration that doubles the intensity of the nonsense suppression) [µM]	Max Fold over DMSO (median maximum fold increase of full length protein production over DMSO-treated samples)
CN[C@@H]1[C@@H](O)[C@@H](O[C@@H]2[C@@H](O)[C@H](O[C@H]3O[C@H](CO)[C@@H](O)[C@H](O)[C@H]3N)[C@@H](N)C[C@H]2N)OC[C@]1(C)O [Compound 1 sulfate, (2R,3S,4R,5R,6S)-5-amino-6-(((1R,2S,3S,4R,6S)-4,6-diamino-3-(((2R,3R,4R,5R)-3,5-dihydroxy-5-methyl-4-(methylamino)tetrahydro-2H-pyran-2-yl)oxy)-2-hydroxycyclohexyl)oxy)-2-(hydroxymethyl)tetrahydro-2H-pyran-3,4-diol]	19	47	–	–
CN[C@@H]1[C@@H](O)[C@@H](O[C@@H]2[C@@H](O)[C@H](O[C@H]3O[C@H]([C@H](C)N)CC[C@H]3N)[C@@H](N)C[C@H]2N)OC[C@]1(C)O.O=S(=O)(O)O [Gentamicin C2a sulfate]	260	3.1	–	–
Gentamicin C1a sulfate	–	–	135	2.6

More lines, main results first:

EC2X (median concentration that doubles the intensity of the nonsense suppression) [1] [µM]	Max Fold over DMSO (median maximum fold increase of full length protein production over DMSO-treated samples) [2]	Compound	EC2X (median concentration that doubles the intensity of the nonsense suppression) [µM]	Max Fold over DMSO (median maximum fold increase of full length protein production over DMSO-treated samples)
566	4.1	CN[C@@H]1[C@@H](O)[C@@H](O[C@@H]2[C@@H](O)[C@H](O[C@H]3O[C@H](CO)[C@@H](O)[C@H](O)[C@H]3N)[C@@H](N)C[C@H]2N)OC[C@H]1O [Gentamicin A sulfate]	–	–
100	3.7	CN[C@@H]1[C@@H](O)[C@@H](O[C@@H]2[C@@H](O)[C@H](O[C@H]3O[C@H]([C@@H](C)NC)CC[C@H]3N)[C@@H](N)C[C@H]2N)OC[C@]1(C)O.O=S(=O)(O)O [Gentamicin C1 sulfate]	–	–
95	5.5	CN[C@@H]1[C@@H](O)[C@@H](O[C@@H]2[C@@H](O)[C@H](O[C@H]3O[C@H]([C@@H](C)N)CC[C@H]3N)[C@@H](N)C[C@H]2N)OC[C@]1(C)O [Gentamicin C2 sulfate]	–	–
